Values quoted from earlier work as cited in US7022342B2, “Controlled release oral dosage form of beta-adrenergic blocking agents” (Andrx Corporation, Inc., priority 2002, dated 2006).

Experiments:
[1] = after oral administration of the conventional tablets

SMILES: CC(C)NCC(O)COc1cccc2ccccc12 (centres unmarked) [Propranolol]
- time of peak plasma concentrations [1]: 60 to 90 min
- solubility in water: freely soluble
